The values that follow come from patent publication US20230292776A1, “GAS PHASE TREATMENT OF PRODUCE” (priority 2022, published 2023).

Structures are written as SMILES.

Holding throughout (type): in vivo
Assay [1] deals with Botrytis cinerea (Bc). As to the kind of experiment: Antifungal activity of vapor against Botrytis cinerea (Bc) in grapes. The following applies: Example 12; vapor of 3 mL in a Petri dish for 72 hours. The protocol: Example 12. The antifungal activity of AITC and DADS vapor against Botrytis cinerea (Bc) in grapes was tested. All samples were wounded by making a 3 mm deep puncture in the skin. Samples were infected by dispensing 1000 Bc spores suspended in 10 μL of water in the wound. The test groups consisted of grapes that were: uninfected and untreated; infected and untreated; exposed to the vapor of 3 mL of AITC in a Petri dish for 72 hours; and exposed to the vapor of 3 mL of DADS in a Petri dish for 72 hours. FIG. 17 quantifies the infection results. […] Both AITC and DADS vapor were effective at controlling Bc mold. Treatment with AITC can potentially lead to changes in color or flavor of the grapes.

Assay [2] deals with Botrytis cinerea (Bc). As to the kind of experiment: Antifungal activity of AITC vapor and coating agent against Botrytis cinerea (Bc) in strawberries. The following applies: 30 minutes. The protocol:
Example 13. The antifungal activity of AITC vapor against Bc in strawberries was tested. All samples were wounded by making a 3 mm deep puncture in the skin. Samples were infected by dispensing 1000 Bc spores suspended in 10 μL of water in the wound. Samples were then incubated at ambient temperature, imaged, and assessed for mold over the following 3 days. The test group consisted of strawberries that were: uninfected and untreated; infected and untreated; and exposed for 30 minutes to the vapor of 125 uL AITC dispensed on Whatman filter paper. […] The infection rates in the initially uninfected sample indicate that the step involving the initial infection of the wound by dispensing the Bc spores may not be necessary to promote infection in the test groups.
Example 14. The antifungal activity of a range of AITC vapor concentrations against Bc in strawberries was tested. Samples were treated by exposure for 30 minutes to the vapor of a range of volumes of AITC disposed on a filter paper disc, then incubated at ambient temperature, imaged, and assessed for mold over the following 6 days. Test groups consisted of strawberries that were untreated and strawberries exposed to the vapor of 62.5 μL, 125 μL, 250 μL, and 500 μL of AITC. […] On day 6, 83% of the untreated control strawberries were infected, 100% of the 62.5 μL AITC dose strawberries were infected, 13% of the 125 μL AITC dose strawberries were infected, and 0% of the 250 and 500 μL AITC dose strawberries were infected. For strawberries incubated at room temperature, all of the AITC doses above 62.5 μL were effective at preventing mold, with doses above 125 μL substantially eliminating mold.
Example 15. The antifungal activity of AITC vapor under different exposure conditions against Bc in strawberries was tested. Test groups consisted of strawberries that were untreated and treated by exposure for 30 minutes to the vapor of 125 μL of AITC disposed on a filter paper disc. Test groups were then incubated in either open or closed containers at 4° C., imaged, and assessed for mold over the following 14 days. […] All samples were free of mold through 7 days. On day 12, 16.7% of the open air controls were infected, 29.2% of closed container controls were infected, and 0% of the AITC treated were infected. On day 14, 33.3% of the open air controls were infected, 41.7% of closed container controls were infected, 0% of the open air AITC treated were infected, and 4.2% of the closed container AITC treated were infected. For strawberries incubated at 4° C., AITC treatment was effective in reducing the incidence of mold over a two week period. While ⅓ of the open air untreated samples were infected, none of the open air AITC-treated were infected. Over 40% of the closed container controls were infected. A single strawberry was infected in the closed container AITC-treated test group.
Example 16. The antifungal activity of AITC vapor against Bc in strawberries treated with a coating agent (95 wt % glyceryl monostearate and 5 wt % sodium stearate) and exposed to vapor in clamshells was tested. Test groups consisted of strawberries that were: untreated; dipped in 40 g/L solution of the coating agent; exposed for 30 minutes to the vapor of 125 μL of AITC disposed on a filter paper disc; and dipped in 40 g/L solution of the coating agent and exposed for 30 minutes to the vapor of 125 μL of AITC disposed on a filter paper disc. Samples were treated, incubated at ambient temperature, imaged, and assessed for mold over the following 4 days. […] On day 3, 52.8% of the controls were infected, 42.1% of the coating agent were infected, 26.3% of the AITC were infected, and 9.3% of the coating agent+AITC were infected. On day 4, 88.9% of the controls were infected, 76.3% of the coating agent were infected, 71% of the AITC were infected, and 34.9% of the coating agent+AITC were infected. […] Bowl dipping in the coating solution also presented challenges for drying around the calyx.
Example 17. […]

Assay [3] concerns mold. As to the kind of experiment: AITC vapor against mold growth on produce in an airtight bin (general description). Here is the method: The plurality of produce items is contacted with the antimicrobial agent for a length of time in a range of 1 minute to 100 hours (e.g., 10 minutes to 1 hour). The length of time is dependent on a variety of factors, such as type of produce, target pathogen, and the degree to which the enclosure is sealed. Examples include exposure times between 15 minutes and 96 hours for allyl isothiocyanate (AITC) in an airtight bin. […] Lower antimicrobial agent concentrations with longer exposure times or higher antimicrobial concentrations with shorter exposure times can also be used. For example, the plurality of produce items is contacted with the antimicrobial agent for a length of time in a range of 15 minute to 72 hours.
A concentration of the antimicrobial agent in the headspace of the enclosure is typically in a range of about 20 parts per million by volume (ppmv) to about 5000 ppmv (e.g., about 550 ppmv to about 4800 ppmv, or about 25 ppmv to about 1250 ppmv). Depending on type of produce and exposure time in the enclosure, antimicrobial agent concentrations greater than about 2200 ppmv can sometimes damage the produce. […] In some embodiments, the antimicrobial agent is provided in a concentration to the enclosure in a headspace at least about 1200 ppmv, at least about 1250 ppmv, or about 1250 ppmv to about 5000 ppmv, or about 1250 ppmv to about 4900 ppmv.

In assay [4] the test system is Botrytis cinerea (Bc). As to the kind of experiment: Antifungal activity of AITC vapor and coating agent against Botrytis cinerea (Bc) in strawberries. The following applies: Example 17; suspended strawberries; day 5.

In the case of `C=CCSSCC=C` [DADS, diallyl disulfide], the “Bc mold in grapes” value in assay [1] was “substantially eliminated Bc mold”.

Consider `C=CCN=C=S` [AITC, allyl isothiocyanate], for which, in assay [1], the “Bc mold in grapes” value was “substantially eliminated Bc mold”. Besides, the “visible mold on strawberries” value in assay [2] (Example 13, 125 uL, after 24 hours) was “no mold was visible”. Further, the “fraction of samples showing visible mold” value is “⅛” in assay [2] (Example 13, 125 uL, after 48 hours) and “¼” in assay [2] (Example 13, 125 uL, after 72 hours). For the same compound, the strawberries infected in assay [2] (Example 14, 62.5 μL dose, day 6, ambient temperature) is reported as 100%; in assay [2] (Example 14, 125 μL dose, day 6, ambient temperature) it was 13%; in assay [2] (Example 14, 250 and 500 μL dose, day 6, ambient temperature) it was 0%; in assay [2] (Example 15, 125 μL, 4° C., closed container, day 14) it was 4.2%; in assay [2] (Example 15, 125 μL, 4° C., open air, day 14), 0%; in assay [2] (Example 15, 125 μL, incubated at 4° C., day 12) it was 0%. Also, the strawberries infected in assay [2] (Example 16, clamshells, coating agent 40 g/L dip, AITC 125 μL, day 3) came to 26.3%; in assay [2] (Example 16, clamshells, coating agent 40 g/L dip, AITC 125 μL, day 4), 71%. The “mold growth on the produce” value in assay [3] (AITC concentration of 1000 ppm, exposure time of 15 minutes, airtight bin) is reported as “slowed mold growth on the produce”. Besides, the “efficacy against mold on the produce” value in assay [3] (AITC concentration of 1000 ppm, exposure time of 30 min or longer) was “good efficacy”. Besides, the “effect on mold growth” value was “some inhibitory effect on mold growth” in assay [3] (AITC concentrations in a range of 550 ppmv to 4800 ppmv) and “tended to be completely inhibitory” in assay [3] (AITC concentrations over 1000 ppmv). For the same compound, the “reduction in incidence of mold versus untreated test group” value in assay [4] is recorded as “over 80%”.
